Key:
Type in all cases: cell-based
EGFP in HeLa cells = test: Localization of EGFP to subcellular structures; conditions: TMP 10 μM, 10 min
Description: Treatment of living cells with an SNACIP inducer of dimerization for microscopic imaging: Unless otherwise specified, first a DMEM complete medium of the cells is replaced with a phenol red-free imaging medium of the SNACIP inducer of dimerization of the corresponding concentration, and then imaging is performed after incubation for a given period of time. For cRGT, the concentration represents an effective ratio of cRGT; and near-complete dimerization regulation may be achieved without washing off excess cRGT before imaging.
Many cellular processes are regulated by dynamic distribution of proteins in the cell.

Rac1 = Rac1 localization to plasma membrane and lamellipodia formation by cRGT
Description: A constitutively active mutant EGFP-NES-Rac1Q61LΔCAAX (G-NES-Rac1 for short, green, cytoplasmic distribution) without the plasma membrane targeting ability and lacking the CAAX-box sequence and mCherry-eDHFR-CAAX (red, plasma membrane localized), being co-expressed in living HeLa cells; treatment of the HeLa cells with cRGT will localize the Rac1 mutant to the functional location of the plasma membrane, which in turn induces a signaling cascade process during lamellipodia formation. Confocal micrographs of representative living HeLa cells co-expressing G-NES-Rac1 and mCherry-eDHFR-CAAX, before treatment with cRGT (Pre), after treatment with 24 μM cRGT, and after addition of TMP at a final concentration of 10 μM. Statistical analysis of colocalization between the EGFP channel and the mCherry channel by PCC were shown. Statistical analysis of cell areas before treatment with cRGT (Pre), after treatment with 24 μM cRGT, and after treatment with TMP at a final concentration of 10 μM was also shown. […] Curve comparison of streak analysis of cells after dimerization induced by cRGT and TMP-Cl. […] Abbreviations in the pictures: mCherry is abbreviated as mChe or R; EGFP is abbreviated as G; mTurquoise2 is abbreviated as mTurq or C; eDHFR is abbreviated as ED; HaloTag is abbreviated as HT. All scales: 10 μm. […]

mEYFP = test: Regulation of GFP mutant mEYFP localization; conditions: TMP 10 μM, 10 min
Description: Yellow fluorescent protein mEYFP and turquoise fluorescent protein mTurquoise2 are close mutants of the GFP. […] This is an interesting phenomenon, but can also be reasonably explained: Asn146 in GFP, a residue that has a key hydrogen-bonding interaction with the Asn99 residue of GBP, is retained in EGFP and mEYFP, but is mutated to Ile146 in mTurquoise2. […] Therefore, cRGT is an all-rounder, can regulate the proteins of interest to which EGFP, mEYFP and eDHFR are fused, and also has good orthogonality to other fluorescent proteins.

eDHFR and HaloTag = test: TMP-Cl induced targeting of Rac1 to plasma membrane (eDHFR/HaloTag); conditions: TMP-Cl 10 μM, 1 h, excess washed off 30 min, HeLa

Row | Compound | reversal of Golgi localization (EGFP in HeLa cells) | reversal of mitochondrial localization (EGFP in HeLa cells) | reversal of Rac1 localization and morphology change (Rac1; 10 μM TMP) | average area of cells after TMP addition (Rac1; 10 μM TMP after cRGT) | reversal of mEYFP localization (mEYFP) | PCC of colocalization (eDHFR and HaloTag)
1 | COc1cc(Cc2cnc(N)nc2N)cc(OC)c1OC [TMP, trimethoprim] | also rapidly reversible | rapidly reversible | completely reversed | decreased significantly | rapidly reversible | 
2 | COc1cc(Cc2cnc(N)nc2N)cc(OC)c1OCCOCCOCCOCCOCCOCCCCCCCl [TMP-Cl] |  |  |  |  |  | around 0.7

— patent US20230414776A1, “Small Molecule-Nanobody Conjugate Inducers of Proximity (SNACIP) and Preparation Methods and Use thereof” (Harbin Institute of Technology, priority 2022, published 2023)
